Test results reported in patent US10842884B2, “Endosomolytic agents for gene therapy” (UCB Biopharma SRL, priority 2016, dated 2020).
Where a name gives a salt, the structure may show the parent alone.

How the values were obtained:
[1] = test system: Chinese Hamster Ovary (CHO) cells; test: Transfection of CHO cells using lipopolyplexes, β-galactosidase reporter gene expression; format: cell-based
From the text: Transfection of Chinese Hamster Ovary (CHO) Cells Using Lipopolyplexes
Plasmid pEGlacZ containing the bacterial β-galactosidase gene under the control of the human cytomegalovirus immediate early promoter was constructed using standard molecular cloning techniques. The 7676 base pair (bp) plasmid was derived by cleavage of pGFP-N1 (Clontech) with HindIII and BclI to remove the reporter gene fragment. The β-galactosidase coding region from pSV-β-galactosidase (Promega) was then inserted via a HindIII to BamHI fragment. Plasmid DNA was then purified using an anion-exchange column (Qiagen Ltd). The average molecular weight per base pair was calculated to be 620.84 Da (310.5 Da for a monophosphorylated nucleotide). The amount of negative charge on the plasmid was then determined on the basis that a single negative charge is associated with each nucleotide.
[…] Lipid films were formed by rotary evaporation at 60° C. and further dried on a freeze drier overnight. Rehydration of the lipid film was performed by adding 4 mL of deionised water and […] 1M NaOH at 60° C. with vigorous agitation in the presence of […] diameter glass beads, taking care to maintain pH in the range 7.5 to 8.0, resulting in the formation of multi-lamellar vesicles (MLVs).
Stock solutions of R26 peptide as a DNA condensing agent at 144 μg/ml and plasmid DNA at 60 μg/ml were prepared in de-ionized water. Equal volumes of each were mixed by adding the plasmid DNA drop-wise to the R26 solution with vortexing. The charge ratio of the polyplex was 3.9:1 (peptide positive charged residues to DNA negative charged phosphates).
The polyplex preparation was diluted in 10 mM HEPES buffer pH 8 to 15 μg/ml DNA equivalent. […] Lipopolyplexes were formed by adding equal volumes of polyplex solution drop-wise to liposome suspension with vortexing.
CHO cells were seeded into 24-wellplates at 100 000 cells per well in Opti-MEM (Gibco BRL) media containing 10% dialysed foetal calf serum (FCS, Gibco BRL) and maintained 37° C. in 5% CO2 incubator for 24 h before the experiment. The adherent cells were washed once in Opti-MEM (Gibco BRL) prior to transfection. Washed medium was removed and replaced with 0.5 ml of Opti-MEM to which 167 μl of lipopolyplex was added ([…]). Individual lipopolyplex preparations were tested in triplicate wells. Cells were incubated for a further 4 h at 37° C. in 5% CO2 before removal of the medium and non-cell associated lipopolyplex and addition of 1 ml of fresh medium (Dulbecco's modified Eagle's medium (DMEM), plus glutamate, asparagine, adenosine, guanosine, cytidine, uridine, thymidine and 10% FCS.
Cells were cultured for a further 72 h before harvesting, the medium was aspirated and the cells washed twice with 1 ml phosphate buffered saline. Cells were lysed by the addition of 200 μl per well of lysis buffer (Promega) and the plate was agitated on an orbital mixer for 15 min. The lysates were transferred to individual Eppendorf tubes, taking care to remove attached cells by scraping with a pipette tip prior to removal. Cell debris was removed by centrifugation in a microfuge for 5 min followed by transfer of the supernatant into clean Eppendorf tubes.
Levels of β-galactosidase (β-gal) activity were determined using a colorimetric enzyme assay kit (Promega) as follows: 50 μl of cell extract was incubated with the kit substrate, O-nitrophenyl-β-D-galactopyranoside in buffer solution for 30 min at 37° C. The reaction was stopped by the addition of 150 μl of 1M sodium carbonate and the absorbance measured at 420 nm (Multiskan Ascent plate reader, Labsystems). Absorbance values were interpolated from a calibration curve to give enzyme activity in mU per ml. In turn these values were normalised in reference to lysate protein concentration as determined by a BCA assay kit (Pierce) and expressed as mU of β-gal per mg of protein.
An anionic liposome composition was evaluated comprising DOPC and CHEMS in the presence and absence of Compound 2. […]

Compound | reporter gene expression ([1]; Example 22, FIG. 1, cholesterol/oleic acid totally substituted with Compound 2 at 40 mol %) | reporter gene expression levels ([1]; Example 22, FIG. 1, higher lipid to DNA ratios (above 2:1), exception: 5:1 lipid to DNA with 20 mol % Compound 2) | reporter gene expression ([1]; Example 22, FIG. 1, lipid to DNA ratio 2:1, Compound 2 content 1 to 40 mol %) | expression of β-galactosidase ([1]; Example 22, FIG. 1, lipopolyplexes with cholesterol, oleic acid and DOPC, 1 mol % Compound 2) | levels of β-galactosidase expression ([1]; Example 23, FIG. 2, DOPC/CHEMS lipopolyplexes, 20 mol % Compound 2, lipid to DNA ratios 0.6:1 to 5.5:1) | transfection enhancement via endosomolytic properties ([1]; overall conclusion from Examples 22 and 23) | melting point [°C]
CC(C)CCCC(C)C1CCC2C3CC=C4C[C@H](OP(=O)(O)OCCCCCCCCCCCc5cc(CC(C)(C)C(=O)O)cc(CC(C)(C)C(=O)O)c5)CC[C@]4(C)C3CC[C@]12C (stereo partly drawn) [Compound 2, 3,3′-(5-(11-(((((3R,10R,13R)-10,13-Dimethyl-17-(6-methylheptan-2-yl)-2,3,4,7,8,9,10,11,12,13,14,15,16,17-tetradecahydro-1H-cyclopenta[a]phenanthren-3-yl)oxy)(hydroxy)phosphoryl)oxy)undecyl)-1,3-phenylene)bis(2,2-dimethylpropanoic acid), ammonium salt] | highest | not significant | increased with increasing content of Compound 2 | little or no expression | high, significant levels | confirming the effectiveness of Compound 2 as a transfection enhancing agent | –
CCCCCCCCCCCCCCCCCCOC[C@@H](COP(=O)(OCCCCCCCCCCCc1cc(CC(C)(C)C(=O)OC)cc(CC(C)(C)C(=O)OC)c1)Oc1ccccc1Cl)OCCCCCCCCCCCCCCCCCC (stereo partly shown) | – | – | – | – | – | – | 27 to 27.5
